Reference: patent US10913727B2, “Modulators of the integrated stress pathway” (Calico Life Sciences LLC, priority 2016, dated 2021)

system: HEK293T cells carrying the ATF4 luciferase reporter; test: ATF4-Luc assay, in vitro model of Vanishing Cell White Matter Disease (VWMD); format: cell-based; details: Homo sapiens, HEK-293T, 1 μg/mL tunicamycin, 7 hours, One Glo luminescence
How it was run: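 Reporter cells were stably generated by retroviral transduction and puromycin selection, then seeded at 30,000 cells/well. Next day, cells received 1 μg/mL tunicamycin with 200 nM test compound for 7 h, and luciferase luminescence was read with a one-step reagent. Values reported as EC50.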

Row | Structure (SMILES) | EC50 [µM]
1 | O=C(COc1ccc(Cl)c(F)c1)NC12CC(NC(=O)c3ccc(CCC4CC4)cn3)(C1)C2 [Compound 289, N-{3-[2-(4-chloro-3-fluorophenoxy)acetamido]bicyclo[1.1.1]pentan-1-yl}-5-(2-cyclopropylethyl)pyridine-2-carboxamide] | < 0.05
2 | O=C(COc1ccc(Cl)c(F)c1)NC12CCC(NC(=O)c3ccc(OC(F)(F)F)cn3)(CC1)C[C@@H]2O [Compound 682, N-{(3S)-4-[2-(4-chloro-3-fluorophenoxy)acetamido]-3-hydroxybicyclo[2.2.2]octan-1-yl}-5-(trifluoromethoxy)pyridine-2-carboxamide] | < 0.05
3 | O=C(COc1ccc(Cl)c(F)c1)NC12CC(Nc3nccn4cnnc34)(C1)C2 [Compound 445, 2-(4-chloro-3-fluorophenoxy)-N-{3-[([1,2,4]triazolo[4,3-a]pyrazin-8-yl)amino]bicyclo[1.1.1]pentan-1-yl}acetamide] | > 2
4 | COC1CN(c2ccnc(C(=O)NC34CC(NC(=O)COc5ccc(Cl)c(F)c5)(C3)C4)c2)C1 [Compound 190, N-{3-[2-(4-chloro-3-fluorophenoxy)acetamido]bicyclo[1.1.1]pentan-1-yl}-4-(3-methoxyazetidin-1-yl)pyridine-2-carboxamide] | 0.25 to 1
5 | Cn1nccc1C(=O)NC12CCC(NC(=O)COc3ccc(Cl)c(F)c3)(CC1)C(O)C2 (stereo not drawn) [Compound 602, N-{4-[2-(4-chloro-3-fluorophenoxy)acetamido]-3-hydroxybicyclo[2.2.2]octan-1-yl}-1-methyl-1H-pyrazole-5-carboxamide] | 0.25 to 1
6 | Cc1nc(C(=O)NC23CCC(NC(=O)COc4ccc(Cl)c(F)c4)(CC2)C(O)C3)cs1 (stereo not drawn) [Compound 473, N-{4-[2-(4-chloro-3-fluorophenoxy)acetamido]-3-hydroxybicyclo[2.2.2]octan-1-yl}-2-methyl-1,3-thiazole-4-carboxamide] | 0.05 to 0.25
7 | COc1ccc(F)cc1C(=O)NC12CC(NC(=O)COc3ccc(Cl)c(F)c3)(C1)C2 [Compound 540, N-{3-[2-(4-chloro-3-fluorophenoxy)acetamido]bicyclo[1.1.1]pentan-1-yl}-5-fluoro-2-methoxybenzamide] | 0.25 to 1
8 | O=C(COc1ccc(Cl)c(F)c1)NC12CCC(NC(=O)c3cc(C(F)F)cs3)(CC1)C[C@@H]2O [Compound 665, N-{(3S)-4-[2-(4-chloro-3-fluorophenoxy)acetamido]-3-hydroxybicyclo[2.2.2]octan-1-yl}-4-(difluoromethyl)thiophene-2-carboxamide] | < 0.05
9 | Cc1nn(C)c(C(=O)NC23CC(NC(=O)COc4ccc(Cl)c(Cl)c4)(C2)C3)c1F [Compound 500, N-{3-[2-(3,4-dichlorophenoxy)acetamido]bicyclo[1.1.1]pentan-1-yl}-4-fluoro-1,3-dimethyl-1H-pyrazole-5-carboxamide] | < 0.05
10 | Cc1cc(C(=O)NC23CCC(NC(=O)COc4ccc(Cl)c(F)c4)(CC2)[C@H](O)C3)n(C)n1 (single isomer, unassigned) [Compound 486] | 0.05 to 0.25
11 | O=C(COc1ccc(Cl)c(F)c1)NC12CC(NC(=O)c3ccc(CO)cn3)(C1)C2 [Compound 159, N-{3-[2-(4-chloro-3-fluorophenoxy)acetamido]bicyclo[1.1.1]pentan-1-yl}-5-(hydroxymethyl)pyridine-2-carboxamide] | 0.25 to 1
12 | O=C(COc1ccc2c(c1)OC(F)(F)O2)NC12CC(NC(=O)c3ccncc3)(C1)C2 [Compound 418, N-(3-{2-[(2,2-difluoro-2H-1,3-benzodioxol-5-yl)oxy]acetamido}bicyclo[1.1.1]pentan-1-yl)pyridine-4-carboxamide] | > 2
13 | Cc1cc(C(=O)NC23CC(NC(=O)COc4ccc(Cl)c(F)c4)(C2)C3)c(C)n1C1CC1 [Compound 842, N-{3-[2-(4-chloro-3-fluorophenoxy)acetamido]bicyclo[1.1.1]pentan-1-yl}-1-cyclopropyl-2,5-dimethyl-1H-pyrrole-3-carboxamide] | > 2
14 | O=C(COc1ccc(Cl)c(Cl)c1)NC12CC(NC(=O)c3ccccn3)(C1)C2 [Compound 156, N-{3-[2-(3,4-dichlorophenoxy)acetamido]bicyclo[1.1.1]pentan-1-yl}pyridine-2-carboxamide] | 0.05 to 0.25
15 | O=C(COc1ccc(F)c(F)c1)NC12CCC(NC(=O)c3ccc(C(F)(F)F)cn3)(CC1)C(O)C2 (stereo not drawn) [Compound 349, N-{4-[2-(3,4-difluorophenoxy)acetamido]-2-hydroxybicyclo[2.2.2]octan-1-yl}-5-(trifluoromethyl)pyridine-2-carboxamide] | 0.25 to 1
16 | CC(C)c1ccc(C(=O)NC23CC(NC(=O)COc4ccc(Cl)c(Cl)c4)(C2)C3)cn1 [Compound 643, N-{3-[2-(3,4-dichlorophenoxy)acetamido]bicyclo[1.1.1]pentan-1-yl}-6-(propan-2-yl)pyridine-3-carboxamide] | 0.25 to 1
17 | O=C(COc1ccc(Cl)c(F)c1)NC12CCC(NC(=O)c3cn4ccccc4n3)(CC1)CC2O (stereo not drawn) [Compound 601, N-{4-[2-(4-chloro-3-fluorophenoxy)acetamido]-3-hydroxybicyclo[2.2.2]octan-1-yl}imidazo[1,2-a]pyridine-2-carboxamide] | 0.25 to 1

Row | Structure (SMILES) | EC50 [µM]
18 | CC(O)c1ccnc(C(=O)NC23CC(NC(=O)COc4ccc(Cl)c(F)c4)(C2)C3)c1 (stereo not drawn) [Compound 524, N-{3-[2-(4-chloro-3-fluorophenoxy)acetamido]bicyclo[1.1.1]pentan-1-yl}-4-(1-hydroxyethyl)pyridine-2-carboxamide] | 0.25 to 1
19 | CCc1cc(C(=O)NC23CCC(NC(=O)COc4ccc(Cl)c(F)c4)(CC2)C(O)C3)on1 (stereo not drawn) [Compound 515, N-{4-[2-(4-chloro-3-fluorophenoxy)acetamido]-3-hydroxybicyclo[2.2.2]octan-1-yl}-3-ethyl-1,2-oxazole-5-carboxamide] | < 0.05
20 | Cc1cc(C(=O)NC23CC(NC(=O)COc4ccc(Cl)c(F)c4)(C2)C3)c(C)o1 [Compound 537, N-{3-[2-(4-chloro-3-fluorophenoxy)acetamido]bicyclo[1.1.1]pentan-1-yl}-2,5-dimethylfuran-3-carboxamide] | 0.25 to 1
21 | O=C(COc1ccc(Cl)c(F)c1)NC12CCC(NC(=O)c3ccc(C(F)(F)F)cn3)(CC1)C[C@@H]2O [Compound 728, N-{(3S)-4-[2-(4-chloro-3-fluorophenoxy)acetamido]-3-hydroxybicyclo[2.2.2]octan-1-yl}-5-(trifluoromethyl)pyridine-2-carboxamide] | < 0.05
22 | Cc1nn(C)c2sc(C(=O)NC34CC(NC(=O)COc5ccc(Cl)c(F)c5)(C3)C4)cc12 [Compound 878, N-{3-[2-(4-chloro-3-fluorophenoxy)acetamido]bicyclo[1.1.1]pentan-1-yl}-1,3-dimethyl-1H-thieno[2,3-c]pyrazole-5-carboxamide] | 0.25 to 1
23 | O=C(COc1ccc(Cl)cc1)NC12CC(NC(=O)c3cnc(C(F)F)cn3)(C1)C2 [Compound 202, N-{3-[2-(4-chlorophenoxy)acetamido]bicyclo[1.1.1]pentan-1-yl}-5-(difluoromethyl)pyrazine-2-carboxamide] | 0.05 to 0.25
24 | Cn1cc(C(=O)NC23CC(NC(=O)COc4ccc(Cl)c(F)c4)(C2)C3)c(C(F)(F)F)n1 [Compound 868, N-{3-[2-(4-chloro-3-fluorophenoxy)acetamido]bicyclo[1.1.1]pentan-1-yl}-1-methyl-3-(trifluoromethyl)-1H-pyrazole-4-carboxamide] | > 2
25 | O=C(COc1ccc(Cl)c(F)c1)NC12CC(Nc3cncc(C4CC4)n3)(C1)C2 [Compound 714, 2-(4-chloro-3-fluorophenoxy)-N-{3-[(6-cyclopropylpyrazin-2-yl)amino]bicyclo[1.1.1]pentan-1-yl}acetamide] | 0.25 to 1
26 | Cc1ccnc(C(=O)NC23CCC(NC(=O)COc4ccc(Cl)c(F)c4)(CC2)C(O)C3)c1 (stereo not drawn) [Compound 915, N-{4-[2-(4-chloro-3-fluorophenoxy)acetamido]-3-hydroxybicyclo[2.2.2]octan-1-yl}-4-methylpyridine-2-carboxamide] | 0.25 to 1
27 | O=C(COc1ccc(Cl)c(F)c1)NC12CCC(NC(=O)c3ccns3)(CC1)C[C@@H]2O [Compound 683, N-{(3S)-4-[2-(4-chloro-3-fluorophenoxy)acetamido]-3-hydroxybicyclo[2.2.2]octan-1-yl}-1,2-thiazole-5-carboxamide] | < 0.05
28 | O=C(COc1ccc(Cl)c(F)c1)NC12CC(NC(=O)c3cnn4c3CCCC4)(C1)C2 [Compound 903, N-{3-[2-(4-chloro-3-fluorophenoxy)acetamido]bicyclo[1.1.1]pentan-1-yl}-4,5,6,7-tetrahydropyrazolo[1,5-a]pyridine-3-carboxamide] | > 2
29 | O=C(COc1ccc(Cl)c(F)c1)NC12CC(NC(=O)c3ccc4oc(=O)ccc4c3)(C1)C2 [Compound 396, N-{3-[2-(4-chloro-3-fluorophenoxy)acetamido]bicyclo[1.1.1]pentan-1-yl}-2-oxo-2H-1-benzopyran-6-carboxamide] | 0.25 to 1
30 | O=C(COc1ccc(Cl)c(F)c1)NC12CCC(NC(=O)c3cc4ccccn4n3)(CC1)CC2O (stereo not drawn) [Compound 594, N-{4-[2-(4-chloro-3-fluorophenoxy)acetamido]-3-hydroxybicyclo[2.2.2]octan-1-yl}pyrazolo[1,5-a]pyridine-2-carboxamide] | 0.05 to 0.25
31 | O=C(COc1ccc2c(c1)OC(F)(F)O2)NC12CC(NC(=O)c3ccc(C(=O)O)cc3)(C1)C2 [Compound 128, 4-[(3-{2-[(2,2-difluoro-2H-1,3-benzodioxol-5-yl)oxy]acetamido}bicyclo[1.1.1]-pentan-1-yl)carbamoyl]benzoic acid] | > 2
32 | O=C(COc1ccc(Cl)c(F)c1)NC12CC(Nc3cnc(C(F)F)cn3)(C1)C2 [Compound 649, 2-(4-chloro-3-fluorophenoxy)-N-(3-{[5-(difluoromethyl)pyrazin-2-yl]amino}bicyclo[1.1.1]pentan-1-yl)acetamide] | 1 to 2
33 | Cc1nocc1C(=O)NC12CC(NC(=O)COc3ccc(Cl)c(F)c3)(C1)C2 [Compound 879, N-{3-[2-(4-chloro-3-fluorophenoxy)acetamido]bicyclo[1.1.1]pentan-1-yl}-3-methyl-1,2-oxazole-4-carboxamide] | > 2
